# Values quoted from earlier work, collected in patent US20140023611A1 (priority 2010, published 2014).
# Conditions: human absorption data, common drugs; cited from earlier work
row,Structure (SMILES),% FA
1,OC[C@H]1O[C@@H](O[C@@H]2[C@@H](CO)OC(O)(CO)[C@H]2O)[C@H](O)[C@@H](O)[C@H]1O (mixture of isomers) [lactulose],0.6%
2,CCN1CCCC1CNC(=O)c1cc(S(N)(=O)=O)ccc1OC (stereo not shown) [sulpiride],36%
3,O=C(O)c1cc(/N=N/c2ccc(S(=O)(=O)Nc3ccccn3)cc2)ccc1O [sulfasalazine],12%
4,C=CCc1ccccc1OCC(O)CNC(C)C (stereo not shown) [alprenolol],96%
5,OC[C@@H](O)[C@@H](O)[C@H](O)[C@H](O)CO [mannitol],26%
6,O=C(O)P(=O)(O)O [foscarnet],17%
7,O=C(O)c1cc(/N=N/c2ccc(O)c(C(=O)O)c2)ccc1O [olsalazine],2.3%
8,CC(=O)Nc1ccc(OCC(O)CNC(C)C)cc1 (stereo not shown) [practolol],95%
9,Cc1ccccc1N1C(=O)c2cc(S(N)(=O)=O)c(Cl)cc2NC1C (stereo not shown) [metolazone],64%
10,C=CCOc1ccccc1OCC(O)CNC(C)C (stereo not shown) [oxprenolol],97%
11,OC[C@H]1O[C@H](OC[C@H]2O[C@H](O[C@]3(CO)O[C@H](CO)[C@@H](O)[C@@H]3O)[C@H](O)[C@@H](O)[C@@H]2O)[C@H](O)[C@@H](O)[C@H]1O [raffinose],0.3%
12,CC(C)NCC(O)COc1cccc2[nH]ccc12 (stereo not shown) [pindolol],92%
13,NC[C@H]1CC[C@H](C(=O)O)CC1 [tranexamic acid],55%
